Source: patent US20220288004A1, “TREATMENT AND PREVENTION OF AGING RELATED-DISEASE AND/OR AGING BY THE INHIBITION OF SPHINGOLIPIDS” (ECOLE POLYTECHNIQUE FEDERALE DE LAUSANNE (EPFL), priority 2019, published 2022)

Legend:
[1] = test system: sphingolipid de novo synthesis pathway; assay: Measurement of sphingolipids in tissues of aged mice treated with myriocin; type: in vivo, mouse
Experimental: To examine whether a causal relationship could underlie the correlation between SphPC1 and muscle mass and function, it was tested whether inhibition of sphingolipid de novo biosynthesis pathway could protect against age-related muscle dysfunction. Aged (18-month-old) C57Bl/6JRj mice were treated for 5 months on chow diet with myriocin, a specific inhibitor of SPT, the first and rate-limiting enzyme of the sphingolipid de novo synthesis pathway, and whose expression in skeletal muscle was negatively correlated with muscular fitness in BXDs.
Animals. Young (2-month-old) and aged (18-month-old) C57Bl/6JRj mice were purchased from Janvier Labs. EchoMRI measuring the fat and lean body mass, were measured before and after the treatment. The dose of myriocin was 0.4 mg/kg/3 times a week. Myriocin (Enzo Life Sciences, Farmingdale, N.Y.) was first dissolved in DMSO which was then mixed with PBS so that each mouse received 1.5 μL DMSO per injection. Animals were fed on a standard chow diet. All animals were housed in micro-isolator cages in a room illuminated from 7:00 AM to 7:00 PM with ad libitum access to diet and water. All the animal experiments are authorized by animal license 2890.1 and 3341 in Canton of Vaud, Switzerland.
Measurement of sphingolipids. Plasma (100 μL) and weighed tissue samples (20-60 mg) were transferred to 2 ml Safe-Lock PP-tubes, and extracted. In brief, samples were homogenized using two 6 mm steal beads on a Mixer Mill (Retsch, Haan, GER; 2×10 sec, frequency 30/s) in 700 μL MTBE/MeOH (3/1, v/v) containing 500 μmol butylated hydroxytoluene, 1% acetic acid, and 200 μmol of internal standards (IS, d18:1/17:0 ceramide, d18:1/17:0 sphingomyelin, Avanti Polar Lipids, Alabaster, Ala., USA) per sample. Total lipid extraction was performed under constant shaking for 30 min at RT. After addition of 140 μL dH2O and further incubation for 30 min on RT, samples were centrifuged at 1,000×g for 15 min to establish phase separation. 500 μL of the upper, organic phase were collected and dried under a stream of nitrogen. Lipids were resolved in 700 μL 2-propanol/methanol/water (7/2.5/1, v/v/v) for UPLC-MS analysis. Remaining tissues were dried, solubilized in NaOH (0.3 N) at 65° C. for 4 h and the protein content was determined using Pierce™ BCA reagent (Thermo Fisher Scientific, Waltham, Mass., USA) and BSA as standard.
Chromatographic separation was modified after Knittelfelder et al. using an ACQUITY-UPLC system (Waters Corporation), equipped with a Luna omega C18 column (2.1×50 mm, 1.6 μm; Phenomenex) starting a 20 min linear gradient with 80% solvent A (MeOH/H2O, 1/1, v/v; 10 mM ammonium acetate, 0.1% formic acid, 8 μM phosphoric acid). The column compartment was kept on 50° C. A EVOQ Elite™ triple quadrupole mass spectrometer (Bruker) equipped with an ESI source was used for detection of lipids in positive ionization mode. Lipid species were analyzed by selected reaction monitoring (ceramide, [M+H]+ to m/z 264.3, 22 eV, 60 ms; sphingomyelin, [M+H]+ to m/z 184.1, 20 eV, 40 ms; resolution 0.7 Q1/Q3). Data acquisition was done by MS Workstation (Bruker). Data were normalized for recovery, extraction-, and ionization efficacy by calculating analyte/IS ratios (AU) and expressed as AU/g tissue or AU/mL plasma.
Measurement of deoxysphingolipids. […] An aliquot (50 μL) of homogenate was dried under air and resuspended in RIPA buffer for protein quantification using BCA assay (BCA Protein Assay, Lambda, Biotech Inc., US). […]

[2] = test system: freshly isolated MuSCs from aged C57BL/6JRj mice; assay: Ex vivo analysis of MuSCs cultured in myriocin containing medium; type: cell-based, mouse
Experimental: Ex vivo analysis of MuSCs. MuSCs were isolated as described above, and seeded in 96- or 48-well plates. The cells were incubated in 30 μM myriocin containing medium (Ham's F-10 nutrient mixture, FBS 20%, basic fibroblast growth factor 2.5 ng/mL, penicillin 100 U/mL, streptomycin 100 μg/mL) for 72 hours. PFA 4% was applied for 15 min, the cells were washed three times for 10 min with PBS, and were blocked in 2% BSA in PBS. The cells were then incubated in primary antibodies MYOD (1:50, LabForce) and MYOG (1:50, Santa Cruz) overnight at 4° C. Secondary antibodies were coupled with Alexa-488 or Alexa-568 fluorochromes (Life Technology) and mounted with Dako Mounting Medium. Leica DMI 4000 microscope was used to image the cells. Quantification of the MYOD+ and MYOG+ cell number was based on more than 500 cells per condition.

aged C57Bl/6JRj mice = assay: Oral glucose tolerance test in aged mice; type: in vivo, mouse; settings: aged chow-fed myriocin treated mice
Description: Frailty is associated with multimorbidity, including diabetes.

[3] = quadriceps of aged myriocin treated mice

CCCCCCC(=O)CCCCCCC=CCC(O)C(O)C(N)(CO)C(=O)O (stereo not drawn) [myriocin, 2-Amino-3,4-dihydroxy-2-(hydroxymethyl)-14-oxoicos-6-enoic acid]
total ceramide contents of skeletal muscle ([1]; aged (18-month-old) C57Bl/6JRj mice, myriocin 0.4 mg/kg i.p. 3 times per week, 5 months, vs DMSO): reduced | skeletal muscle deoxysphingolipid contents ([1]; aged mice, myriocin 0.4 mg/kg i.p. 3 times per week, 5 months, smaller effect than on canonical sphingolipids): reduced | sphinganine (SA) level in skeletal muscle [1, 3]: lower levels | sphingosine (SO) level in skeletal muscle [1, 3]: lower levels | individual ceramide species in skeletal muscle ([1]; quadriceps, aged mice, myriocin 0.4 mg/kg i.p. 3 times per week, 5 months): reduced | MYOD protein level ([2]; 30 μM myriocin, 72 h, vs DMSO): elevated | MYOG protein level ([2]; 30 μM myriocin, 72 h, vs DMSO): elevated | Ki67+ MuSC count ([2]; MuSCs from untreated aged mice, 72 h in myriocin containing medium vs DMSO): higher | glucose tolerance (aged C57Bl/6JRj mice): improved
